Reference: patent US4309554A, “3-(2-Thiophenesulfonyl)-2-halopropanenitriles” (The Dow Chemical Company, priority 1980, dated 1982)
Values after ≈ are worked out from the molar mass of the structure shown.

How the values were obtained:
Format in all cases: cell-based
A. niger = assay: in vitro agar Petri dish dilution test, MIC against A. niger; conditions: Aspergillus niger; A. niger (An)
Description: (§1) The compounds have antimicrobial utility. In conventional in vitro agar Petri dish dilution tests for determining antimicrobial activity, the compounds of the Examples had minimum inhibitory concentrations (MIC) against the indicated organisms in parts per million (ppm) as follows: […]

S. aureus = assay: in vitro agar Petri dish dilution test, MIC against S. aureus; conditions: Staphylococcus aureus; S. aureus (Sa)
Description: as §1

A. aerogenes = assay: in vitro agar Petri dish dilution test, MIC against A. aerogenes; conditions: Klebsiella aerogenes; A. aerogenes (Aa)
Description: as §1

T. mentagrophytes = assay: in vitro agar Petri dish dilution test, MIC against T. mentagrophytes; conditions: Trichophyton mentagrophytes; T. mentagrophytes (Tm)
Description: as §1

C albicans = assay: in vitro agar Petri dish dilution test, MIC against C albicans; conditions: C albicans (Ca)
Description: as §1

C. pelliculosa = assay: in vitro agar Petri dish dilution test, MIC against C. pelliculosa; conditions: Hansenula anomala; C. pelliculosa (Cp)
Description: as §1

[1] = test system: Trichoderm Sp. Madison P42; assay: in vitro agar Petri dish dilution test, MIC against Trichoderm Sp. Madison P42; conditions: Trichoderm Sp. Madison P42 (Tr 42)
Description: as §1

B. subtilis = assay: in vitro agar Petri dish dilution test, MIC against B. subtilis; conditions: Bacillus subtilis; B. subtilis (head Be, footnote Bs)
Description: as §1

[2] = test system: Pseudomonas Sp. Strain 10; assay: in vitro agar Petri dish dilution test, MIC against Pseudomonas Sp. Strain 10; conditions: Pseudomonas Sp. Strain 10 (Ps 10)
Description: as §1

Ceratocystis IPS = assay: in vitro agar Petri dish dilution test, MIC against Ceratocystis IPS; conditions: Ceratocystis IPS (CI)
Description: as §1

P. pullulans = assay: in vitro agar Petri dish dilution test, MIC against P. pullulans; conditions: P. pullulans (Pp)
Description: as §1

S. typhosa = assay: in vitro agar Petri dish dilution test, MIC against S. typhosa; conditions: S. typhosa (St)
Description: as §1

E. coli = assay: in vitro agar Petri dish dilution test, MIC against E. coli; conditions: Escherichia coli; E. coli (Ec)
Description: as §1

Compound	MIC (A. niger) [µg/mL]	MIC (S. aureus) [µg/mL]	MIC (A. aerogenes) [µg/mL]	MIC (T. mentagrophytes) [µg/mL]	MIC (C albicans) [µg/mL]	MIC (C. pelliculosa) [µg/mL]	MIC [1] [µg/mL]	MIC (B. subtilis) [µg/mL]	MIC [2] [µg/mL]	MIC (Ceratocystis IPS) [µg/mL]	MIC (P. pullulans) [µg/mL]	MIC (S. typhosa) [µg/mL]	MIC (E. coli) [µg/mL]
Cc1ccc(S(=O)(=O)CC(Cl)C#N)s1 (stereo not drawn) [2(a)]	50 (≈ 200 µM)	50 (≈ 200 µM)	50 (≈ 200 µM)	50 (≈ 200 µM)	50 (≈ 200 µM)	50 (≈ 200 µM)	50 (≈ 200 µM)	10 (≈ 40 µM)	500 (≈ 2000 µM)	50 (≈ 200 µM)	50 (≈ 200 µM)		
CCc1ccc(S(=O)(=O)CC(Cl)C#N)s1 (stereo not drawn) [2(b)]	500 (≈ 1900 µM)	5 (≈ 19 µM)	100 (≈ 379 µM)	50 (≈ 190 µM)	500 (≈ 1900 µM)	100 (≈ 379 µM)	500 (≈ 1900 µM)	5 (≈ 19 µM)	500 (≈ 1900 µM)	100 (≈ 379 µM)	500 (≈ 1900 µM)	5 (≈ 19 µM)	50 (≈ 190 µM)
CCCCc1ccc(S(=O)(=O)CC(Cl)C#N)s1 (stereo not drawn) [2(c)]	500 (≈ 1710 µM)	5 (≈ 17.1 µM)	500 (≈ 1710 µM)	50 (≈ 171 µM)	50 (≈ 171 µM)	50 (≈ 171 µM)	500 (≈ 1710 µM)	5 (≈ 17.1 µM)	500 (≈ 1710 µM)	50 (≈ 171 µM)	50 (≈ 171 µM)		500 (≈ 1710 µM)
N#CC(Cl)CS(=O)(=O)c1cccs1 (stereo not drawn) [Example 1, 3-(2-Thiophenesulfonyl)-2-chloropropane nitrile]	100 (≈ 424 µM)	100 (≈ 424 µM)	100 (≈ 424 µM)	10 (≈ 42.4 µM)	10 (≈ 42.4 µM)	10 (≈ 42.4 µM)	100 (≈ 424 µM)	100 (≈ 424 µM)	100 (≈ 424 µM)	100 (≈ 424 µM)	10 (≈ 42.4 µM)		100 (≈ 424 µM)
